Reference: patent US20080312292A1, “Antipruritics” (priority 2002, published 2008)
Read-outs that look alike come from different tables or passages of the source. Marks after values point to notes of the source that are not given here.

Key:
[1] = target: T1, Human cannabinoid receptor CB1R (Homo sapiens, UniProt P21554); test: Human cannabinoid receptor binding inhibition, [3H]CP55940, CB1R; details: membranes of CB1R-expressing CHO cells, [3H]CP55940 0.5 nM; read-out: Ki CB1 receptor
T1 construct: expressed in transfected cells; host or cells: CHO cells
Procedure: (§1) The crude membrane fractions as Human cannabinoid receptor were then prepared from the CB1R or CB2R-expressing CHO cells. Receptor binding assay was performed by incubating the membranes with each test compound and 38,000 dpm [^3H]CP55940 (at a final concentration of 0.5 nM: NEN Life Science Products) in the assay buffer (50 mM Tris-HCl; 1 mM EDTA, 3 mM MgCl2, pH 7.4) containing 0.5% bovine serum albumin (BSA) for 2 hr at 25° C. The incubation mixture was filtered through 1% polyethylenimine (PEI)-treated GF/C glass filter and washed with 50 mM Tris-HCl (pH 7.4) containing 0.1% BSA. The radioactivity was then counted with a liquid scintillation counter. […] Ki value of test compound is calculated by obtained IC50 value and Kd value of [^3H]CP55940.

[2] = target: T2, Human cannabinoid receptor CB2R (Homo sapiens, UniProt P34972); test: Human cannabinoid receptor binding inhibition, [3H]CP55940, CB2R; details: membranes of CB2R-expressing CHO cells, [3H]CP55940 0.5 nM; read-out: Ki CB2 receptor
T2 construct: expressed in transfected cells; host or cells: CHO cells
Procedure: as §1

human CB2R = target: T3, human CB2R (Homo sapiens, UniProt P34972); test: Cannabinoid receptor-mediated suppression of forskolin-stimulated cAMP synthesis, CB2R; format: cell-based
T3 construct: expressed in transfected cells; host or cells: CHO cells

mouse CB2 receptor = target: T4, mouse CB2 receptor (Mus musculus, UniProt P47936); test: Binding inhibitory activity to mouse cannabinoid receptors, spleen membrane fraction; parameters: species or system C57BL/6 J mice
T4 construct: The membrane fractions of mouse brain and spleen that abundantly express CB1 and CB2 receptor, respectively; from tissue; host or cells: mouse spleen membrane fraction (C57BL/6 J)

[3] = test system: compound 48/80-induced pruritus; test: Inhibitory effect on compound 48/80-induced pruritus in ICR strain mice; details: for Antipruritic Effect (%): ICR mice, compound 48/80-induced scratching
human CB1R = target: T5, human CB1R (Homo sapiens, UniProt P21554); test: cell-based; details: CHO cells expressing human CB1R; read-out: cAMP Inhibition: IC50 CB1
T5 construct: expressed in transfected cells; host or cells: CHO cells

mouse CB1 receptor = target: T6, mouse CB1 receptor (Mus musculus, UniProt P47746); test: Binding inhibitory activity to mouse cannabinoid receptors, brain membrane fraction; parameters: species or system C57BL/6 J mice
T6 construct: The membrane fractions of mouse brain and spleen that abundantly express CB1 and CB2 receptor, respectively; from tissue; host or cells: mouse brain membrane fraction (C57BL/6 J)

[4] = CHO cells expressing human CB2R, forskolin-stimulated cAMP synthesis, read-out: CB2 receptor IC50
[5] = mouse spleen membrane fraction, read-out: Binding Assay: Ki Spleen (CB2)
[6] = CHO cells expressing human CB2R, read-out: cAMP Inhibition: IC50 CB2
[7] = mouse brain membrane fraction, read-out: Binding Assay: Ki Brain (CB1)

T5 sequence (P21554 whole entry): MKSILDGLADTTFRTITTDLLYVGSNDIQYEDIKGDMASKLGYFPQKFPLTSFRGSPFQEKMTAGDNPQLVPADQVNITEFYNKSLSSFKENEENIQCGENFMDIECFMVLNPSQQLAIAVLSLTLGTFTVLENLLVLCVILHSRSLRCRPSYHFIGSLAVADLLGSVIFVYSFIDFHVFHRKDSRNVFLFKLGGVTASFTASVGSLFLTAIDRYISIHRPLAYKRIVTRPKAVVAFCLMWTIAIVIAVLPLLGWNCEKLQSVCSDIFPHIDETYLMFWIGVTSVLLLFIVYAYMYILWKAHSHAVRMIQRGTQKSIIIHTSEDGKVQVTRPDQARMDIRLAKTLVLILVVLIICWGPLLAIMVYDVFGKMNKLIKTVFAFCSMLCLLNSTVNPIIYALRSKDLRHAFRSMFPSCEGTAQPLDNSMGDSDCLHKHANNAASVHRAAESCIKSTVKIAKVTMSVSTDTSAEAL
T1 sequence (P21554 whole entry): as above
T6 sequence (P47746 whole entry): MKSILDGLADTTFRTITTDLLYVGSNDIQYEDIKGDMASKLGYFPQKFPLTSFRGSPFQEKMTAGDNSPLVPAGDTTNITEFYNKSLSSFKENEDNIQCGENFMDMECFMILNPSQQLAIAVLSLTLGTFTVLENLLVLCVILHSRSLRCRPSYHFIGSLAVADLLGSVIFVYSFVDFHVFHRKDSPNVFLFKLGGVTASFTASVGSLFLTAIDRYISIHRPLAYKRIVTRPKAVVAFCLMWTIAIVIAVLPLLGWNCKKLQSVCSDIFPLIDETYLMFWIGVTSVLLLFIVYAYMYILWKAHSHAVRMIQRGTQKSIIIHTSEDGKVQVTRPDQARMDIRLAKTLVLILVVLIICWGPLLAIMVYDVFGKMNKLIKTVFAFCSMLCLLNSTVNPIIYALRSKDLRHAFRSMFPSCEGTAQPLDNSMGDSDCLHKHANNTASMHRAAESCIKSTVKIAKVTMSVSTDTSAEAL
T3 sequence (P34972 whole entry): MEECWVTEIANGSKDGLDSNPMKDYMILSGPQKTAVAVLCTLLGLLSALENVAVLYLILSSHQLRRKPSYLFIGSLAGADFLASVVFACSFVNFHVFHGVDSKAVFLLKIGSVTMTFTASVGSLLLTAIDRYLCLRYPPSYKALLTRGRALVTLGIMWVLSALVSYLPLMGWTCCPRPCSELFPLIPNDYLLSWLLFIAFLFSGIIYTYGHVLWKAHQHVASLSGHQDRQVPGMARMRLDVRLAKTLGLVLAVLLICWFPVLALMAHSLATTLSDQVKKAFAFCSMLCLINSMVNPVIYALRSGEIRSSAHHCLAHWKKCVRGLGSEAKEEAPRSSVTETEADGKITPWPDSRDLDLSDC
T2 sequence (P34972 whole entry): as above
T4 sequence (P47936 whole entry): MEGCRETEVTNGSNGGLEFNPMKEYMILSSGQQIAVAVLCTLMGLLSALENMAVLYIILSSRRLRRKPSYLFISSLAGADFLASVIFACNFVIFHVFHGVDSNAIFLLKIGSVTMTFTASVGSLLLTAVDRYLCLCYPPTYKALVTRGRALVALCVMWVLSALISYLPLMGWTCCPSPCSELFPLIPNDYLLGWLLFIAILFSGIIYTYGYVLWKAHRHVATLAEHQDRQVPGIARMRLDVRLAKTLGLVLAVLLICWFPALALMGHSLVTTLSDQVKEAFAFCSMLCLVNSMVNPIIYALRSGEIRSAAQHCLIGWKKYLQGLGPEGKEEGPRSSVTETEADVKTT

With COCCn1c2c(cc(C(=O)NCCc3ccccc3)c1=O)CCCCCC2 [Compound 4-302] as the molecule, how does the Ki [1] read?
The Ki was over 5000 nM.

And the Ki [2]?
Its Ki is 10 nM.

Which Ki [1] does the source give for CCCCn1c2c(cc(C(=O)NCCc3ccccc3)c1=O)CCCCCC2 [Compound 4-102] here?
The Ki was 908 nM.

And the Ki [2]?
The Ki was 1.6 nM.

And the IC50 (human CB2R)?
Its IC50 is 1.7 nM.

What does the source list for COCC(=O)N1CC(C)(C)CSC1=Nc1ccccc1C(C)C [Compound I-93]?
IC50 (human CB2R; [4]): 0.6 nM; melting point: 76 to 78 °C

With CCCCn1c(C)c(C)cc(Oc2nc3ccccc3o2)c1=S [Compound 2-004, 1-butyl-5,6-dimethyl-3-O-(benzoxazol-2-yl)-2-thiopyridone] as the molecule, how does the Ki [2] read?
The Ki was 101 nM.

Which results are given for CSC(=S)N1CC(C)(C)CSC1=Nc1ccc(C)c(C)c1 [Compound I-74]?
IC50 (human CB2R; [4]): 1.6 nM; melting point: 126 to 128 °C

For CCCCCc1cc(O)c2c(c1)OC(C)(C)[C@@H]1CCC(C)=C[C@@H]21 [Δ^9-tetrahydrocannabinol, delta-9-tetrahydrocannabinol, reference compound], which Ki (mouse CB2 receptor; [5]) is on record?
The Ki was 9.2 nM.

What about the “Antipruritic Effect (%)” value ([3]; 10 mg/kg (i.p.)) of the same molecule?
Its value is 98**# %.

What about the “inhibitory effect on compound 48/80-induced pruritus (number of scratching vs vehicle group)” value ([3]; female ICR mice, oral administration once, scratching counted for 30 min) of the same molecule?
Its value is “inhibited compound 48/80-induced pruritus”.

With C=CCSC(=S)N1CC2(CCCCC2)CSC1=Nc1ccccc1OC [II-86] as the molecule, how does the IC50 (human CB1R) read?
The IC50 was 16.8 nM.

What about the IC50 (human CB2R; [6]) of the same molecule?
Its IC50 is 1 nM.

What about the Ki (mouse CB1 receptor) of the same molecule?
Its Ki is 12 nM.

What about the Ki (mouse CB2 receptor) of the same molecule?
The Ki was 1.1 nM.

What about the melting point of the same molecule?
Its melting point is 108.5 to 109.5 °C.

What about the “Antipruritic Effect (%)” value ([3]; 100 mg/kg (p.o.)) of the same molecule?
Its value is 98** %.

With CCCc1ccccc1N=C1SCC(C)(C)CN1C(=O)SC [Compound I-49] as the molecule, how does the IC50 (human CB2R; [4]) read?
Its IC50 is 2.2 nM.

And the melting point?
The melting point was 64 to 66 °C.

For CCCCn1c(C)c(C)cc(NC(=O)c2ccccc2C)c1=O [Compound 5-006], which Ki [2] is on record?
The Ki was 14 nM.

With CCCCn1c(C)c(I)cc(C(=O)NCCc2ccccc2)c1=O [Compound 3-038] as the molecule, how does the Ki [1] read?
The Ki was 1250 nM.

And the Ki [2]?
The Ki was 12 nM.

And the IC50 (human CB2R)?
The IC50 was 28.6 nM.

Which IC50 (human CB1R) does the source give for CCCCn1c2c(cc(C(=O)NC3CCCCC3)c1=O)CCCCCC2 [Compound 10-035] here?
The IC50 was 29 nM.

And the IC50 (human CB2R; [6])?
The IC50 was 0.2 nM.

And the Ki (mouse CB1 receptor; [7])?
The Ki was 12 nM.

And the Ki (mouse CB2 receptor; [5])?
Its Ki is 0.1 nM.

What about the “Antipruritic Effect (%)” value ([3]; 100 mg/kg (p.o.)) of the same molecule?
Its value is 93** %.

Which Ki [1] does the source give for CCCCn1c2c(cc(C(=O)NCc3ccccc3)c1=O)CCCCCC2 [Compound 4-101] here?
Its Ki is 890 nM.

What about the Ki [2] of the same molecule?
The Ki was 1.5 nM.

What about the IC50 (human CB1R) of the same molecule?
The IC50 was 60.3 nM.

What about the IC50 (human CB2R; [4]) of the same molecule?
Its IC50 is 1.4 nM.

And the IC50 (human CB2R; [6])?
The IC50 was 1.4 nM.

And the Ki (mouse CB1 receptor; [7])?
The Ki was 35 nM.

And the Ki (mouse CB2 receptor; [5])?
The Ki was 0.6 nM.

And the “Antipruritic Effect (%)” value ([3]; 100 mg/kg (p.o.))?
The value was 81** %.

For CCCCn1c2c(cc(C(=O)NCCc3ccc(N)cc3)c1=O)CCCCCC2 [Compound 4-104], which Ki [1] is on record?
Its Ki is 54 nM.

And the Ki [2]?
The Ki was 6 nM.

And the IC50 (human CB2R)?
Its IC50 is 9.8 nM.

Which Ki [1] does the source give for CCCCn1c2c(cc(C(=O)NCCc3ccccc3)c1=O)CCC2 [Compound 4-052] here?
Its Ki is 1500 nM.

And the Ki [2]?
The Ki was 24 nM.

For CCCCn1c2c(cc(C(=O)NCCc3ccccc3)c1=O)CCCC2 [Compound 4-002, 1-butyl-2-oxo-1,2,5,6,7,8-hexahydroquinoline-3-carboxylic acid phenethylamide], which Ki [1] is on record?
Its Ki is 746 nM.

What about the Ki [2] of the same molecule?
Its Ki is 17 nM.

What does the source list for CCNC(=O)N1CC(C)(C)CSC1=Nc1ccccc1C(C)C [Compound I-92]?
IC50 (human CB2R; [4]): < 0.2 nM; melting point: 52 to 53 °C

With CCSC(=O)N1CC(C)(C)CSC1=Nc1ccc(C)cc1C [Compound I-39] as the molecule, how does the IC50 (human CB2R; [4]) read?
The IC50 was 13.7 nM.

For CCSC(=O)N1CCSC1=Nc1ccccc1C(C)C [Compound I-6], which Ki [1] is on record?
Its Ki is over 5000 nM.

For CCCCn1c2c(cc(C(=O)NCCc3ccc(O)cc3)c1=O)CCCCCC2 [Compound 4-105], which Ki [1] is on record?
Its Ki is 91 nM.

What about the Ki [2] of the same molecule?
Its Ki is 2.1 nM.

For CCCCn1c(C)c(C)cc(C(=O)NCCc2ccccc2)c1=O [Compound 3-010], which Ki [2] is on record?
Its Ki is 57 nM.

Which results are given for CCCCn1c2c(cc(C(=O)NCc3ccccc3)c1=O)CCCC2 [Compound 4-001]?
Ki [1]: 2850 nM; Ki [2]: 28 nM; IC50 (human CB2R): 64.2 nM

With CCSC(=O)N1CC(C)(C)CSC1=Nc1ccc([N+](=O)[O-])cc1C(C)C [Compound I-46] as the molecule, how does the IC50 (human CB2R; [4]) read?
The IC50 was 5.4 nM.

What about the melting point of the same molecule?
Its melting point is 119 to 120 °C.

Which results are given for O=C(NCc1ccccc1)c1cc2c(n(Cc3ccncc3)c1=O)CCCCCC2 [Compound 4-310]?
Ki [1]: 512 nM; Ki [2]: 9 nM

Which results are given for Cc1c(C(=O)c2cccc3ccccc23)c2cccc3c2n1[C@H](CN1CCOCC1)CO3 [WIN55212-2, reference compound]?
Ki (mouse CB2 receptor; [5]): 6 nM; Antipruritic Effect (%) ([3]; 100 mg/kg (p.o.)): 70* %

For CCCCn1c(C)c(C)cc(NC(=O)c2ccccc2Cl)c1=O [Compound 5-005], which Ki [2] is on record?
The Ki was 16 nM.

For COCCn1c2c(cc(C(=O)NCc3ccccc3)c1=O)CCCCCC2 [Compound 4-301], which Ki [1] is on record?
The Ki was 1770 nM.

And the Ki [2]?
Its Ki is 8 nM.

With CSC(=S)N1CC2(CCCCC2)CSC1=Nc1ccccc1C(C)C [Compound I-270] as the molecule, how does the IC50 (human CB1R) read?
The IC50 was 68.7 nM.

And the IC50 (human CB2R; [6])?
The IC50 was 7.9 nM.

And the Ki (mouse CB1 receptor; [7])?
The Ki was 80 nM.

And the Ki (mouse CB2 receptor; [5])?
Its Ki is 1.2 nM.

What about the “Antipruritic Effect (%)” value ([3]; 100 mg/kg (p.o.)) of the same molecule?
Its value is 98** %.
